In the case of `CC(C)(C)OC(=O)N=C(N)N(CCc1ccc(OCCC2Oc3c(Cl)cc(Cl)cc3N(Cc3cccc(Cl)c3)C2=O)cc1)C(=O)OC(C)(C)C` (centres undefined), the melting point – broadly, the temperature, or range, at which the solid turns liquid – lay within 115 to 117 °C.
In the case of `N#CCCCCn1cnc(NC(N)=NCC(F)(F)F)n1` it was 200 to 201 °C; in that of `COc1cc2ccccc2cc1NC(=O)N1CCN(c2cc(C)cc(C)c2)CC1`, 105 to 107 °C; in that of `Oc1ccc2c(c1)CCCC(c1ccccc1)=C2c1ccc(OCCCCCSCCCCF)cc1`, 163 °C.
As for `COC(=O)c1occc1NC(N)=O`, the figure is 208 °C.
Molecule `CC(=O)Cc1nc2ccccc2s1` had a melting point of 118 to 119 °C.
In the case of `CCCCC(=O)c1cc(C(=O)O)c2cc(Cc3ccc(F)cc3)cnc2c1O` it was 227 to 229 °C.
As for `Cc1csc2nc3cc(F)ccc3n12`, the figure is 148 °C; as for `C[C@H]1CCCC(C)(C)[C@@H]1[C@@H](O)c1cccc(Cl)c1`, 58 to 60 °C.
In turn, `Fc1cc(F)c2c(Nc3c(Cl)ccc4c3OCO4)ncnc2c1` came in with a melting point of 234 to 237 °C.
As for `CCCCC(=O)Nc1ccn(C2OC(CO)C(O)C2O)c(=O)n1` (centres undefined), the figure is 132 to 135 °C; as for `Oc1ccc(F)c(O)c1F`, 100 to 101 °C; as for `COc1cccc(-n2c(-c3ccccc3)cc(=O)c(C)c2-c2ccccc2)c1`, 183 to 185 °C.
In the case of `CC(=O)NC[C@H]1CN(c2ccc(N3CCC4(CC3)CC4(C#N)C#N)cc2)C(=O)O1` it was 172 to 174 °C; in that of `CC(=O)c1cccc(-c2ncc(N=CN(C)C)cn2)c1`, 146 to 148 °C; in that of `O=C1C(=O)N2c3ccccc3Sc3cccc1c32`, 203 to 206 °C.
`CCCOC(=O)c1cn(C2CC2)c2nc(N3CCC(N)C3)c(F)cc2c1=O` (centres undefined): the melting point was 125 to 126 °C.
Take `O=Cc1nn(-c2ccc(O)cc2)c2c1CCCC2Cc1cccc2ccccc12` (centres undefined): the melting point is greater than 260 °C.
In the case of `CC(C)(C)C1=CC(=Nc2ccc(CCC(=O)O)cc2)C=C(C(C)(C)C)C1=O` it was 165 to 167 °C.
As for `O=C(O)c1ccccc1OCCN1CCC(c2cn(CC3CC3)c3ccccc23)CC1`, the figure is 145 to 147 °C.
On to `CC(C)(C)c1ccc(C(=O)NCc2ccc3c(c2)C(=O)N(C2CCC(=O)NC2=O)C3=O)cc1` (centres undefined), for which the melting point is 164 to 166 °C.
`CC(C)COc1c(-c2ccc(S(C)(=O)=O)cc2)cnn(-c2ccc(F)cc2)c1=O` yielded a melting point of 121 to 128 °C.
`CN1CCN(C(=O)c2ccc(Nc3cc(NC(=O)Nc4c(Cl)cc(Cl)cc4Cl)ncn3)cc2)CC1` gave a melting point of 165 to 175 °C.
As for `CN(C)C1(c2cccc(F)c2)CC=C(c2[nH]c3ccccc3c2CCc2ccncc2)CC1` (centres undefined), the figure is 194 to 198 °C; as for `O=C(NC(=O)c1c(Cl)cccc1Cl)Nc1cc(Br)c(Br)cc1C(F)(F)F`, 204 °C; as for `CCn1nccc1NC(=O)c1ccc(OC)c2oc(COC)cc12`, 97 to 99 °C.
In the case of `Cc1cc(Cl)c(-n2nc(C#N)c(-c3ccco3)c2N)c(Cl)c1` it was 192 °C; in that of `CCOC(=O)CCCC(=O)c1ccc(F)cc1`, 46 to 47 °C.
As for `N#Cc1ccc(-c2cncc(OC3SCC(O)C(O)C3O)c2)cc1C#N` (centres undefined), the melting point turned out to be 192 °C.
The molecule `CNC(=O)NC(=O)C(CC1CCC(=O)C1)c1ccc(Cl)c(Cl)c1` (centres undefined) registered a melting point of 70 to 74 °C.
In the case of `C=CCOc1cccc(C[C@H](NC(=O)OC(C)(C)C)C(=O)OC)c1` it was 50 to 51 °C.
In the case of `CC(C)c1cccc(CCC(O)CC2CCCCC2)c1NC(=O)CC1c2ccccc2Oc2ccccc21` (centres undefined) it was 148 °C; in that of `CC(=O)N1CCC[C@H]1C(=O)Nc1ccc(S(N)(=O)=O)cc1`, 283 to 285 °C.
In turn, `O=C(O)CCc1ccc(-c2cccc(-c3ccnc4c(C(=O)c5cccs5)cnn34)c2)cc1` had a melting point of 117 to 119 °C.
For `Cn1nc(-c2ccccc2)c(CC(=O)O)c1-c1ccccc1`, the melting point was 170 to 172 °C.
On to `Oc1ccc(C2COc3cc(O)ccc3C2c2ccc(OCCN3CCCC3)cc2)cc1` (centres undefined), for which the melting point was 112 to 116 °C.
Regarding `Cn1c(=O)c2c(ncn2CN2CCCC2)n(C)c1=O`, the melting point lay in the range of 105 to 108 °C.
In the case of `NC(=O)c1cc(-c2ccc(Cl)cc2)sc1N` it was 255 to 257 °C.
In the case of `CCC(O)(CC)Cc1ccc(NC(=O)OCc2ccccc2)cc1` it was 99 to 100 °C; in that of `O=[N+]([O-])c1cn(-c2cccnc2)nc1F`, 139 to 141 °C; in that of `O=C(O)c1ncncc1Br`, 200 °C.
Molecule `Cn1cc(-c2cc3cccnc3[nH]2)c2cc(N)ccc21` gave a melting point of 247 to 248 °C.
In the case of `COC(=O)c1ccc2c(ccn2Cc2cccc([N+](=O)[O-])c2)c1` it was 129 to 130 °C; in that of `CSc1nc(O)c(-c2ccc(C)cc2)c(O)n1`, 226 °C.
In the case of `CS(=O)(=O)Nc1ccc(Nc2nc(NC3CCCC3)c3nc[nH]c3n2)cc1` it was 261 to 265 °C; in that of `CC(N)(Cc1c[nH]c2ccccc12)C(=O)NCCc1ccccc1` (centres undefined), 106 to 110 °C; in that of `Cc1ccc2nc(N3CCN(c4ncccc4C(F)(F)F)CC3)[nH]c2c1`, 216 to 217 °C.
As for `NS(=O)(=O)c1nc2cc(O)ccc2s1`, the figure is 224 °C; as for `CCCCc1oc2ccc(C#N)cc2c1C(=O)c1ccc(O)cc1`, 152 to 153 °C; as for `Cn1c(-c2ccc(-n3cnc4ccccc43)cc2)cnc1[C@H](Cc1ccccn1)N(C=O)c1cc2ccccc2o1`, 152 to 155 °C.
With `OCCC(=C(c1ccccc1)c1ccc(OCCBr)cc1)c1ccccc1`, the melting point was 133 to 137 °C.
In the case of `Cn1cc(-c2cc3cccnc3[nH]2)c2ccc(C(=O)O)cc21` it was 359 to 361 °C; in that of `Cn1cc(C(F)(F)F)nc1-c1ccc(OCC(O)CNCCOc2ccc(O)c(C(N)=O)c2)cc1` (centres undefined), 195 to 197 °C.
As to `CC(C)C(=O)Nc1nsnc1-c1c(Cl)cccc1Cl`, the melting point lay within 112 to 117 °C.
In the case of `CCc1c(CCC(=O)O)ccc2c1OCO2` it was 127 to 128 °C; in that of `COc1ccc(S(=O)(=O)N2C(=O)[C@@](c3ccccc3OC)(N3C[C@H](OC(C)=O)C[C@H]3C(=O)N(C)C)c3cc(Cl)ccc32)c(OC)c1`, 194 to 195 °C.
As for `CCOC(=O)C=Cc1csc(Nc2ccccc2)n1`, the figure is 113 to 118 °C; as for `O=C(O)C1CNC(C(=O)O)c2[nH]c3ccccc3c21` (centres undefined), 230 to 231 °C.
As for `COc1nc(C)nc(NC(=O)NS(=O)(=O)C(C)S(=O)(=O)N2CCCC2)n1` (centres undefined), the figure is 136 to 137 °C; as for `CN1Cc2ccc(OCCCCN3CCN(c4cccc5ccccc45)CC3)nc2NC1=O`, 180 to 182 °C; as for `CS(=O)c1cc(=O)c2ccc(N3CCOCC3)cc2s1` (centres undefined), 198 to 200 °C.
`CNCc1cccc(C2CCN(c3cc4c(cc3F)c(=O)c(C(=O)O)cn4C3CC3)C2)c1` (centres undefined) displayed a melting point of 239 to 240 °C.
Molecule `CCOC(=O)CCNC(=O)CN1CCOc2ccc(NC(=O)NCc3ccccc3)cc2C1=O` came in with a melting point of 70 to 75 °C.
As for `Cc1ccccc1CCc1nc2cc(Cl)c(S(N)(=O)=O)cc2[nH]1`, the melting point was 205 to 208 °C.
Turning to `CC(=O)NC1Cc2ccc(CCN3CCN(c4nsc5ccccc45)CC3)cc2C1(C)C` (centres undefined), the melting point fell in the range of 62 to 72 °C.
The molecule `COc1ccc2[nH]c(S(=O)Cc3cc(N(C)C)ncn3)nc2c1` (centres undefined) displayed a melting point of 104 to 106 °C.
As for `COc1ccccc1C1(O[Si](C)(C)C)C(=O)Nc2cc(C)c(Cl)cc21` (centres undefined), the figure is 227 °C; as for `CCCOc1ccccc1-c1ccoc1C(=O)NNC(=O)c1ccc(O)c(C#N)c1`, 114 to 117 °C.
In the case of `CS(=O)(=O)Nc1ccc(C(O)(C(F)(F)F)C(F)(F)F)cc1` it was 137 to 139 °C.
In the case of `CCOc1cc(CO)ccc1OCc1nc(-c2ccccc2)oc1C` it was 130 to 131 °C; in that of `O=C(Nc1ccc(Br)cc1CBr)C(F)(F)F`, 133 to 135 °C.
Consider `CC(C)(C)OC(=O)NC1CCCC1CO` (centres undefined), for which the melting point was in the range of 107 to 108 °C.
In the case of `O=C(NOCC(O)CN1CCCCC1)Nc1ccccc1` (centres undefined) it was 101 to 103 °C; in that of `COc1ccc(Cn2c(=O)oc(=O)c3cc(F)cnc32)cc1`, 143 °C; in that of `CN(C)CC#Cc1cc(CN2CCOCC2)cc2c(=O)c(C(=O)NCc3ccc(Cl)cc3)cn(C)c12`, 154 to 157 °C.
On to `Cc1c(C(=O)C(N)=O)c2c(OCC(=O)O)cccc2n1Cc1ccccc1`, for which the melting point is 218 to 220 °C.
Take `Cc1ccnc(Nc2nc(-c3ccc(OC(F)(F)F)cc3)cs2)c1`: the melting point lay within 275 to 282 °C.
As for `Cc1cc(I)ccc1Nc1c(-c2nnn[nH]2)ccc(F)c1F`, the figure is 83.4 to 88.7 °C.
The molecule `C1=C(c2ccccc2)CCN(CCCCc2ccncc2)C1` yielded a melting point of 89 to 90 °C.
`Clc1cc(NC23CC4CC(CC(C4)C2)C3)nc(NC23CC4CC(CC(C4)C2)C3)n1` gave a melting point of 232 to 236 °C.
On to `CC(C)(C)CCc1nn(-c2ccc(F)cc2F)c2c1C1CCC2C1` (centres undefined), for which the melting point was in the range of 54 to 57 °C.
As for `COC(=O)c1ccc(Oc2ccc(O)cc2)cc1`, the melting point was in the range of 130 to 134 °C.
As for `CCCC(=O)C1c2cccc(OC(=O)C(C)(C)C)c2C(=O)c2c(OC(=O)C(C)(C)C)cccc21`, the melting point worked out at 120 °C.
In the case of `CC(=O)Nc1ccc(Oc2ccc(S(C)(=O)=O)cc2C)cc1` it was 169 °C; in that of `O=c1c(C2=Nc3ccccc3S(=O)(=O)N2)c(O)c2ccccc2n1CC1CCCCC1`, 232 to 235 °C; in that of `CCCCc1nc(Cl)c(C=O)n1Cc1ccc(-c2nnn(C(c3ccccc3)(c3ccccc3)c3ccccc3)n2)cc1`, 154 to 157 °C.
For `CCOP(=O)(C=Cc1ccc(N)cc1)OCC`, the melting point was 81 °C.
`O=C(Nc1cccnc1)N1CCc2cc(Cl)ccc21` returned a melting point of 204 to 205 °C.
As for `N#Cc1ccc(C2=Nc3ccccc3C(=O)C2=Cc2ccncc2)cc1`, the figure is 154 to 156 °C.

These data come from a melting point compilation (Tetko et al.; mined from patent text by program, amines drawn as free bases though some values may be those of a salt).
